Source: patent US9695119B2, “Methionine analogs and methods of using same” (Bioxiness Pharmaceuticals, Inc., priority 2008, dated 2017)
Like-named read-outs stand apart in the source and are kept apart here.

Legend:
E. coli (DH5-α) = assay: Growth inhibition of E. coli by methionine analogs, 96-well plate, OD 550 nm over time; type: cell-based; conditions: E. coli, 12.5 mM, OD 550 nm
Text: Comparative Minimum Bactericidal Concentration (MBC) results provide estimates of the susceptibility of various test articles against test organisms. A modification of the […] (NCCL) Standardized Protocol “Methods for dilution antimicrobial susceptibility tests for bacteria that grow aerobically” was used in these studies. Sterile Phosphate Buffer Saline (PBS) at pH 7.0 (vehicle) was used as the diluent. Use of such diluent allows for the determination of the intrinsic activity of our test articles in the absence of any interfering molecules. Specifically, each test article was diluted using 2-fold serial dilution in 96-well plate to give a range of concentrations from approximately 50 mM to 0.05 mM in a final volume of 0.1 mL. Each dilution was inoculated with 5×10^5 CFU/mL test bacteria. The initial optical density as absorbance of each well was read at OD 550 nm using ThermoMax plate reader. […] At various time intervals post-treatment, OD reading at 550 nm was recorded at various time intervals. FIG. 1A and Table 1 show time dependent growth inhibition capability of analogs on E. coli at 12.5 mM. For FIGS. 1A and 1B, the 96-well plate format was used to culture E. coli (DH5-α) cells in M9 minimal media supplemented with glucose (M9) or same media supplemented with a range of concentrations of various analogs. Experiments were carried out in duplicate.

L929 cells = conditions: mouse, 60 min
Method: Cytotoxicity is assessed by a colorimetric assay system (Sagripanti J-L, Bonifacino A. Cytotoxicity of Liquid Disinfectants. Surgical Infections, 2000; 1(1): 3-14, the content of which is hereby incorporated by reference, particularly with respect to the experimental methods described therein), using 3′-(phenylamino-carbonyl)-3,4-tetrazo-lium-bis(4-methoxy-6-nitro) benzene sulfonic acid hydrate (XTT), ProCheck™ cell viability assay (Evaluation of a soluble tetrazolium/formazan assay for cell growth and drug sensitivity in culture using human and other tumor cell lines described by Scudiero D A, Shoemaker R A H, Paul K D, Monks A, Tierney S, Nofziger T H, Currens M J, Seniff D, Boyd M R. Cancer Res. 1988 Sep. 1; 48(17):4827-33, the content of which is hereby incorporated by reference, particularly with respect to the experimental methods described therein). Similar approaches for determining the cell viability are used by other investigators. Three cell types are used: […] (L929), primary human skin fibroblast and primary human keratinocyte cells cultured in Dulbecco Modified Eagle's Medium and Keratinocyte defined medium with corresponding growth factors plus antibiotics. Cells are trypsinized and counted under the microscope and seeded at 1000-to-2000 cells per well of a flat-bottom 96-well plate. Cells are allowed to grow overnight at 37° C. Tissue culture media is removed the following day and cells are rinsed with fresh media 1× and then left in 50 μL of tissue culture media. Test articles are prepared as 2-fold dilutions and 200 μL is added into each set of 4-wells (total volume per well is 250 μL). Cells are exposed to test articles for 60 min at room temperature. Immediately after the exposed time, test article from each well is removed and cells are fed with 250 μL of fresh media. Plates are incubated at 37° C. for 18-20 hr. The following day media is removed again and replaced with 100 μL/well of fresh media containing 10/100 μL XTT-reagent. Cells are incubated under growth conditions (5% CO2 at 37° C. humidified incubator), protected from light, until color development is achieved. Absorbance is read at 450 nm with reference wavelength at 750 nm using Molecular Device ThermoMax Plate reader, blanking the plate on the medium-only assay blank wells. Untreated cells receiving XTT reagents-only serve as positive cell proliferation control.
(§1) Results are expressed as percentage of cells surviving the treatment as compared to PBS.

[1] = test system: CV-1 (African Green Monkey Kidney Cells) cells; conditions: 60 min, pH 7
Method: Preliminary studies of cytotoxicity were performed in a mammalian cell viability assay.
CV-1 cells were propagated in DMEM plus 8% FBS according to supplier's recommendations. CV-1 cells were seeded at 1.5×10^4 cells per well in 96-well plates and incubated overnight at 37° C. On the day of testing, growth medium was aspirated from each well, and 20 μl fresh medium was added per well. Test articles were diluted from 50 mM to 0.05 mM by 2-fold serial dilution using PBS at pH 7.0 for each test article. After which 80 μl of each dilution was added to each well for a total volume of 100 μl per well. Following 60 minutes exposure at 37° C., test articles were aspirated and replaced with fresh 100 μl tissue culture media and incubated for 24 hours at 37° C. Next day cell culture media was removed and cell viability was determined by addition of WST-8 (Dojindo, Japan) reagent and the absorption at 450 nm read spectrophotometrically. Orange-red formazan, which is produced by live cells, is a direct measure of cell viability in this assay.
as §1

[2] = target: E. coli Methionyl-tRNA synthetase (Escherichia coli, UniProt P00959); assay: Enzymatic aminoacylation tRNA charging assay; type: biochemical
Chain of E. coli Methionyl-tRNA synthetase (P00959 whole entry): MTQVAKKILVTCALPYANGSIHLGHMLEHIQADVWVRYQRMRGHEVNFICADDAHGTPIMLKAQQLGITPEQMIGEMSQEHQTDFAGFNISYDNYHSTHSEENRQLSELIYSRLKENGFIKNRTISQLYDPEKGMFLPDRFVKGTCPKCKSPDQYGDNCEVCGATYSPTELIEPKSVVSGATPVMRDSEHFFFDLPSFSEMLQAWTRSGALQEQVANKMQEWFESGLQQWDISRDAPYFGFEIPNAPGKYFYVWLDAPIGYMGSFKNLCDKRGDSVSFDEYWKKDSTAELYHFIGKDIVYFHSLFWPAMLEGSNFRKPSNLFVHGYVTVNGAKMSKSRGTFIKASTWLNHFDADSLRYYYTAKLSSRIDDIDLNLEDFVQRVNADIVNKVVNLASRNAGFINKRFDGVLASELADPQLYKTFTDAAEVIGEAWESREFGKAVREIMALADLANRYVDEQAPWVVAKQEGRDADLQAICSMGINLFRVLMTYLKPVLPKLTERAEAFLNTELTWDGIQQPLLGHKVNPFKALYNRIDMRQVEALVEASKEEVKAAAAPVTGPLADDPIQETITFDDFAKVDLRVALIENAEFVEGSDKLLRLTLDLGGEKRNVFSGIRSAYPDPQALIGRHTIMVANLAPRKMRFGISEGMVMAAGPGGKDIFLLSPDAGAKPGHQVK
Method: The assay system is as described by Hartman M et al, 2006 Enzymatic aminoacylation of tRNA with unnatural amino acids. PNAS. […] Each assay contains 40 mM Hepes (pH 7.4), 17 mM MgCl2, 45 mM KCl, 3.4 mM 2-mercaptoethanol, 6 mM ATP, 6% glycerol, 350 μM E. coli tRNA (Roche), 0.09 mg/mL BSA, 910 nM Methionyl-tRNA synthetase (MetRS) and amino acids in 100-1,000 μM range. […] Samples are transferred to ice bath to stop the reactions and then small aliquot (2 μL) samples are precipitated using 500 μL of 5% cold TCA onto Whatmann filter papers and vacuumed and then dried under a heat lamp. Radioactivity of each sample is measured as counts per minute (CPM), as compared to controls (without the analog). Results for the S enantiomer of I-A ((S)-2-amino-4-(methylthio)butane-1-sulfonic acid hydrochloride) are shown below in Table 11.

Row | SMILES | Absorbance (E. coli (DH5-α); well 12, time 0 hrs) | Absorbance (E. coli (DH5-α); well 12, time 1 hrs) | Absorbance (E. coli (DH5-α); well 12, time 2 hrs) | Absorbance (E. coli (DH5-α); well 12, time 3 hrs) | Absorbance (E. coli (DH5-α); well 12, time 3.75 hrs) | Absorbance (E. coli (DH5-α); well 12, time 5 hrs) | Absorbance (E. coli (DH5-α); well 12, time 6.5 hrs) | Absorbance (E. coli (DH5-α); well 12, time 7.25 hrs) | Absorbance (E. coli (DH5-α); well 12, time 23 hrs) | Percentage of Surviving L929 cells relative to control (L929 cells; 0.1 mM) [%] | Percentage of Surviving L929 cells relative to control (L929 cells; 0.2 mM) [%] | Percentage of Surviving L929 cells relative to control (L929 cells; 0.39 mM) [%] | Percentage of Surviving L929 cells relative to control (L929 cells; 0.78 mM) [%] | Percentage of Surviving L929 cells relative to control (L929 cells; 1.56 mM) [%] | Percentage of Surviving L929 cells relative to control (L929 cells; 3.13 mM) [%] | Percentage of Surviving L929 cells relative to control (L929 cells; 6.25 mM) [%] | Percentage of Surviving L929 cells relative to control (L929 cells; 12.5 mM) [%] | Percentage of Surviving L929 cells relative to control (L929 cells; 25 mM) [%] | Percentage of Surviving L929 cells relative to control (L929 cells; 50 mM) [%] | Percentage of Surviving CV-1 cells relative to PBS ([1]; 0.1 mM) [%] | other results
1 | CSCC[C@H](N)C(=O)NO.Cl [I-AA, (S)-2-amino-N-hydroxy-4-(methylthio)butanamide hydrochloride] | 0.084 | 0.113 | 0.130 | 0.133 | 0.109 | 0.118 | 0.110 | 0.100 | 0.130 | 100 | 94 | 89 | 87 | 87 | 87 | 85 | 86 | 85 | 82 | 97 | Percentage of Surviving CV-1 cells relative to PBS ([1]; 0.2 mM): 95%; Percentage of Surviving CV-1 cells relative to PBS ([1]; 0.39 mM): 96%; Percentage of Surviving CV-1 cells relative to PBS ([1]; 0.78 mM): 96%; Percentage of Surviving CV-1 cells relative to PBS ([1]; 1.56 mM): 100%; Percentage of Surviving CV-1 cells relative to PBS ([1]; 3.13 mM): 100%; Percentage of Surviving CV-1 cells relative to PBS ([1]; 6.25 mM): 99%; Percentage of Surviving CV-1 cells relative to PBS ([1]; 12.5 mM): 101%; Percentage of Surviving CV-1 cells relative to PBS ([1]; 25 mM): 99%; Percentage of Surviving CV-1 cells relative to PBS ([1]; 50 mM): 72%
2 | CSCC[C@H](N)CS(=O)(=O)O.Cl [I-A, (S)-2-amino-4-(methylthio)butane-1-sulfonic acid hydrochloride] | – | – | – | – | – | – | – | – | – | – | – | – | – | – | – | – | – | – | – | – | Radioactivity, Methionyl-tRNA synthetase tRNA charging ([2]; Experiment #1, I-A 0.04 mM, 1 Minute): 2,476 Counts Per Minute; Radioactivity, Methionyl-tRNA synthetase tRNA charging ([2]; Experiment #1, I-A 0.04 mM, 10 Minutes): 3,466 Counts Per Minute; Radioactivity, Methionyl-tRNA synthetase tRNA charging ([2]; Experiment #1, I-A 0.20 mM, 1 Minute): 2,333 Counts Per Minute; Radioactivity, Methionyl-tRNA synthetase tRNA charging ([2]; Experiment #1, I-A 0.20 mM, 10 Minutes): 3,147 Counts Per Minute; Radioactivity, Methionyl-tRNA synthetase tRNA charging ([2]; Experiment #1, I-A 1.00 mM, 1 Minute): 2,372 Counts Per Minute; Radioactivity, Methionyl-tRNA synthetase tRNA charging ([2]; Experiment #1, I-A 1.00 mM, 10 Minutes): 3,218 Counts Per Minute; Radioactivity, Methionyl-tRNA synthetase tRNA charging ([2]; Experiment #1, I-A 5.00 mM, 1 Minute): 2,007 Counts Per Minute; Radioactivity, Methionyl-tRNA synthetase tRNA charging ([2]; Experiment #1, I-A 5.00 mM, 10 Minutes): 2,891 Counts Per Minute; Radioactivity, Methionyl-tRNA synthetase tRNA charging ([2]; Experiment #2, I-A 0.25 mM, 10 Minutes): 1,701 Counts Per Minute; Radioactivity, Methionyl-tRNA synthetase tRNA charging ([2]; Experiment #2, I-A 1.25 mM, 10 Minutes): 1,907 Counts Per Minute; Radioactivity, Methionyl-tRNA synthetase tRNA charging ([2]; Experiment #2, I-A 5.00 mM, 10 Minutes): 1,575 Counts Per Minute; Radioactivity, Methionyl-tRNA synthetase tRNA charging ([2]; Experiment #2, I-A 12.5 mM, 10 Minutes): 1,672 Counts Per Minute
3 | CSCC[C@H](N)C(=O)O [Methionine] | 0.085 | 0.123 | 0.164 | 0.168 | 0.151 | 0.191 | 0.202 | 0.202 | 0.427 | 104 | 101 | 100 | 95 | 87 | 86 | 84 | 85 | 85 | 81 | 98 | Percentage of Surviving CV-1 cells relative to PBS ([1]; 0.2 mM): 96%; Percentage of Surviving CV-1 cells relative to PBS ([1]; 0.39 mM): 95%; Percentage of Surviving CV-1 cells relative to PBS ([1]; 0.78 mM): 96%; Percentage of Surviving CV-1 cells relative to PBS ([1]; 1.56 mM): 99%; Percentage of Surviving CV-1 cells relative to PBS ([1]; 3.13 mM): 100%; Percentage of Surviving CV-1 cells relative to PBS ([1]; 6.25 mM): 100%; Percentage of Surviving CV-1 cells relative to PBS ([1]; 12.5 mM): 99%; Percentage of Surviving CV-1 cells relative to PBS ([1]; 25 mM): 99%; Percentage of Surviving CV-1 cells relative to PBS ([1]; 50 mM): 66%
